Experimental data as given in patent EP3995521A1, “BLOCKED POLYISOCYANATE COMPOSITION, HYDROPHILIC POLYISOCYANATE COMPOSITION, RESIN COMPOSITION, RESIN FILM AND LAMINATED BODY” (Asahi Kasei Kabushiki Kaisha, priority 2019, dated 2021).

Test: Surface tension of dispersing agent at 25°C by Wilhelmy method (Physical property 1-5)
Assay type: physicochemical
Conditions: aqueous solution of 0.1% by mass of the dispersing agent
Experimental: The surface tension may be determined by the following method, for example. An anionic dispersion agent is diluted with water to prepare an aqueous solution consisting of: 0.1% by mass of the anionic dispersion agent, relative to the total mass of the aqueous solution; and water. Then, the aqueous solution was used to measure the surface tension at 25°C by Wilhelmy method (which may be referred to as plate method or vertical plate method). Specifically, when a plate that is a measuring unit makes contact with the surface of the aqueous solution, the aqueous solution wets the plate upwards. At the time, the surface tension acts along the perimeter of the plate, and the force that pulls the plate into the aqueous solution generates. The pulling force F (force that acts on the plate, measuring force) is read, and the surface tension r is determined by the following formula. In the formula, L represents the perimeter (m) of the plate, and θ represents the contact angle of the plate and the aqueous solution. r = F/(L×cosθ) [formula]
The surface tension may be measured using a commercially available measurement device, such as static surface tension measurement system (manufactured by DKSH Japan, under the model number of TD 1C or TD 3).
Each dispersing agent used in the examples and comparative examples was diluted with water to prepare an aqueous solution of the dispersing agent consisting of: 0.1% by mass of the anionic dispersion agent, relative to the total mass of the aqueous solution; and water. Then, the resultant aqueous solution of the dispersing agent was used to measure the surface tension at 25°C by Wilhelmy method.

surface tension at 25°C (listed as compound (II-1)) [mN/m] | Compound | surface tension at 25°C [mN/m]
30.7 | Ammonium polyoxyethylene alkylether sulfate [Example D-6] | 38.8
 | CCCCC(CC)COCCOCCOP(=O)([O-])O.[Na+] [Example D-4, Polyoxyalkylene alkylether phosphoric acid ester] | 30.7
